Reference: patent publication US6579718B1, “Carbazolylvinyl dye protein stains” (Molecular Probes, Inc., priority 2000, dated 2003)

Key:
BSA = BSA (Bos taurus, UniProt P02769); experiment: Absorbance/emission spectra, fluorescence enhancement and quantum yield of dyes in solution +/- BSA (Example 21); format: physicochemical, bovine; conditions: for ABS λ max, BSA / EM λ max, BSA / FE (fluorescence enhancement, BSA) / Quantum Yield (BSA): 150 μg/mL BSA; for ABS λ max, BSA / EM λ max, BSA / ABS λ max, unbound / EM λ max, unbound: 10 mM Tris-HCl, pH 7.5, 0.05% SDS; for FE (fluorescence enhancement, BSA): 0.05% SDS, at emission maxima; for FE (fluorescence enhancement, BSA) / Quantum Yield (BSA): 470 nm excitation; for Quantum Yield (BSA): relative to fluorescein in 0.1 M NaOH; for ABS λ max, unbound / EM λ max, unbound: dye without BSA
Description: A particular dye of this invention is generally selected for a particular assay using one or more of the following criteria: sensitivity to poly(amino acids), insensitivity to the presence of nucleic acids, dynamic range, photostability, staining time, and spectral properties. […] Although the fluorescence enhancements and quantum yields are low to moderate in solution, some are significant relative to the long wavelength emission maxima (see Table 1 and Example 21).
Measurements are performed using −1 μM dye+/−150 μg/mL BSA in 10 mM Tris-HCl, pH 7.5,+0.05% SDS with a 2.0 mL sample volume. Fluorescence enhancements are calculated at emission maxima in a standard fluorometer using 470 nm excitation. Fluorescence quantum yields are determined relative to fluorescein (in 0.1 M NaOH), using 470 nm excitation.

[1] = tested on: broad-range protein molecular weight markers; experiment: Staining of broad-range molecular weight protein standards in SDS-polyacrylamide gels (Example 22, FIG. 2, 3); conditions: regardless of the buffer
Description: FIG. 2: Intensity profile comparison after staining broad-range protein molecular weight markers with SYPRO Orange dye in 7% acetic acid and phosohate-buffered saline. FIG. 2A.) Profile obtained with SYPRO Orange dye in 7% acetic acid. FIG. 2B.) Profile obtained with SYPRO Orange dye in 50 mM sodium phosphate, 150 mM sodium chloride, pH 7.0. Grey scale values of the fluorescence signals were inverted prior to obtaining the traces to facilitate evaluation of the peaks.
FIG. 3: Intensity profile comparison after staining broad-range protein molecular weight markers with Compound 9 in 7% acetic acid and phosphate-buffered saline. FIG. 3A.) Profile obtained with Compound 9 in 7% acetic acid. FIG. 3B.) Profile obtained with Compound 9 in 50 mM sodium phosphate, 150 mM sodium chloride, pH 7.0. Grey scale values of the fluorescence signals were inverted prior to obtaining the traces to facilitate evaluation of the peaks.
SDS-polyacrylamide gel electrophoresis is performed by standard methods utilizing 4% T, 2.6% C stacking gels, pH 6.8 and 15% T, 2.6% C separating gels, pH 8.8. % T is the total monomer concentration expressed in grams per 100 mL and % C is the percentage crosslinker. A staining solution of Compound 9 is prepared by diluting a stock solution that 5 is […] dye in DMSO in either 7.5% acetic acid or 50 mM Na2HPO4, 150 mM NaCl, pH 7.0 with vigorous mixing. Alternatively, a wide range of buffers are compatible with staining, including but not limited to formate, pH 4.0; citrate, pH 4.5; acetate, pH 5.0; MES, pH 6.0;
imidazole, pH 7.0; HEPES, pH 7.5; Tris acetate, pH 8.0; Tris-HCl, pH 8.5; Tris borate, 20 mM EDTA, pH 9.0; and bicarbonate, pH 10.0. Buffers should be prepared as 50-100 mM 10 solutions containing about 150 mM NaCl. Approximately 50-75 mL of staining solution is used for a typical mini-gel (5 cm×9 cm×1 mm). The gel is placed into the staining solution and the container is covered with aluminum foil to protect the dye from bright light. The gel is gently agitated for at least 30 minutes at room temperature using an orbital shaker (50:RPM). After staining, the gel is briefly dipped in water and visualized on a UV light box. […] As little as 1 ng of protein may be visualized when the fluorescent image is recorded by photography using a cellophane 490-nm long pass filter. […] In the latter buffer, protein bands are barely detectable above background fluorescence with these latter dyes.

[2] = tested on: amino acid homo- and hetero-polymers; experiment: Dye staining of amino acid homo- and hetero-polymers copolymerized into polyacrylamide gel discs; conditions: gel discs with 0.1% SDS; no asterisk = moderate
Source text: The specificity of protein detection of the present method can be compared to that of silver, CBB, SYPRO Orange dye and SYPRO Red dye staining for a variety of synthetic poly(amino acids) copolymerized into a polyacrylamide gel matrix. To do this, homopolymers of L-arginine, asparagine, histidine, lysine, aspartate, glutamate, alanine, glycine, isoleucine, leucine, methionine, serine, threonine, tryptophan, tyrosine and proline are copolymerized into 15% T, 2.6% C polyacrylamide gels at a concentration of […]. Except when indicated, 0.1% sodium dodecyl sulfate is included in the polyacrylamide solution as well. The amino acid heteropolymers, poly(glutamate, alanine, tyrosine), poly(glutamate, tyrosine), poly(lysine, tyrosine), poly(glutamate, lysine, tyrosine), and poly(arginine, tyrosine) are copolymerized into polyacrylamide gels in an identical manner as the homopolymers. Blank gels containing no polymer are prepared for reference. The co-polymerized gels are cut into discs using the large end of a 1000 microliter pipet tip (Sorenson Bioscience, Inc., West Salt. Lake City, Utah) and stained in Falcon 48 well flat bottom tissue culture plates (Becton-Dickinson, Franklin Lakes, N.J.) on an orbital shaker operating at 50 RPM. Gel discs are quantified on a Roche Lumi-Imager system (Indianapolis, Ind.) and classified into three groups based upon staining intensity (strong, moderate, or weak staining).

Sequence of BSA (P02769 25-607): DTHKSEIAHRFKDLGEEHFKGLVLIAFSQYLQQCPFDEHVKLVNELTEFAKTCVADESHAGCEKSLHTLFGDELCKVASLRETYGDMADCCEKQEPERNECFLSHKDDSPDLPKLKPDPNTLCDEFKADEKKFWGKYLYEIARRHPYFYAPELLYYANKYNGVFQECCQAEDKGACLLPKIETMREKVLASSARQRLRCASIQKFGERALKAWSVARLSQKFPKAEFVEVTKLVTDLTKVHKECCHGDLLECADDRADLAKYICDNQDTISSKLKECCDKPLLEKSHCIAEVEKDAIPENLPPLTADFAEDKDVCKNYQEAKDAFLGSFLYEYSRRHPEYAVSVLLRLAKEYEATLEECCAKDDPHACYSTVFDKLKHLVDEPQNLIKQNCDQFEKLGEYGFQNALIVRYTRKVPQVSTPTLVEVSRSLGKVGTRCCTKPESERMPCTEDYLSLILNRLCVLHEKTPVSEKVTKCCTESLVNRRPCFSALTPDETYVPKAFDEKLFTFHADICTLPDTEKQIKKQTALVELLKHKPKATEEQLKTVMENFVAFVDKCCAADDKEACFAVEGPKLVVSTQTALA

Compound	ABS λ max, BSA (BSA) [nm]	EM λ max, BSA (BSA) [nm]	FE (fluorescence enhancement, BSA) (BSA) [fold]	Quantum Yield (BSA) (BSA)	ABS λ max, unbound (BSA) [nm]	EM λ max, unbound (BSA) [nm]	Appearance of stained proteins on UV light box [1]	Staining intensity, Arg homopolymer [2]	Staining intensity, Arg:Tyr heteropolymer [2]	Staining intensity, Glu:Lys:Tyr heteropolymer [2]	Staining intensity, His homopolymer [2]	Staining intensity, Ile homopolymer [2]	Staining intensity, Lys homopolymer [2]	Staining intensity, Lys:Tyr heteropolymer [2]
O=S(=O)([O-])CCCC[n+]1ccc(/C=C/c2ccc3c(c2)c2ccccc2n3-c2ccccc2)c2ccccc21 [Compound 15]	469	591	52	0.25	468	670	–	–	–	–	–	–	–	–
CCn1c2ccccc2c2cc(/C=C/c3cc[n+](CCCS(=O)(=O)[O-])cc3)ccc21 [Compound 13]	–	553	15	0.24	–	588	very bright yellow bands against an orange background	–	–	–	–	–	–	–
CCOCC(=O)CCC[n+]1ccc(/C=C/c2ccc3c(c2)c2ccccc2n3CC)c2ccccc21.[Br-] [Compound 10]	492	612	110	0.21	468	~700	–	–	–	–	–	–	–	–
CCn1c2ccccc2c2cc(/C=C/c3ccc4cc(OC)ccc4[n+]3C)ccc21 [Compound 17]	–	~610	2.5	0.04	–	679	–	–	–	–	–	–	–	–
CCn1c2ccccc2c2cc(/C=C/c3sc4ccccc4[n+]3CCCS(=O)(=O)[O-])ccc21 [Compound 14]	464	576	15	0.08	448	638	–	–	–	–	–	–	–	–
CCn1c2ccccc2c2cc(/C=C/C3=[N+](CCCCCC(=O)O)c4ccc(S(=O)(=O)[O-])cc4C3(C)C)ccc21 [Compound 18]	502	590	3.0	0.01	503	611	–	–	–	–	–	–	–	–
CCOc1ccc(Nc2ccc(C(=C3C=CC(=[N+](CC)Cc4cccc(S(=O)(=O)[O-])c4)C=C3)c3ccc(N(CC)Cc4cccc(S(=O)(=O)[O-])c4)cc3)cc2)cc1.[Na+] [Coomassie Blue-R]	–	–	–	–	–	–	–	Arg*	Arg:Tyr*	Glu:Lys:Tyr*	His	Ile	Lys*	Lys:Tyr*
Silver	–	–	–	–	–	–	–	–	–	Tyr*	–	Ile	Lys*	Lys:Tyr*
CCCCc1cc(/C=C/c2ccc3c(c2)c2ccccc2n3CC)c2ccccc2[n+]1-c1ccccc1.[Cl-] [Compound 16]	491	623	25	0.17	480	676	–	–	–	–	–	–	–	–
CCn1c2ccccc2c2cc(/C=C/c3ccc4ccccc4[n+]3CCCCS(=O)(=O)[O-])ccc21 [Compound 12]	453	587	34	0.10	441	679	–	–	–	–	–	–	–	–
CCn1c2ccccc2c2cc(/C=C/c3cc[n+](CCCC(=O)O)c4ccccc34)ccc21.[Cl-] [Compound 11]	483	609	104	0.21	475	~700	–	–	–	–	–	–	–	–
